# Publication PMC12446476 (Nature Communications, 2025)
# Read-outs that look alike come from different tables or passages of the source.
# Tested on: N. gonorrhoeae
# Test: MIC determination, Etest
# Type: cell-based, Neisseria gonorrhoeae
# Settings: for MIC: Neisseria gonorrhoeae
# From the text: The 2024 WHO N. gonorrhoeae reference strains were used for quality control. Only whole MIC doubling dilutions are reported. Clinical breakpoints or the epidemiological cutoff (ECOFF, to indicate azithromycin resistance) from EUCAST (v14.0, https://www.eucast.org/clinical_breakpoints) were used to classify isolates as antimicrobial susceptible or resistant. […] Two times the standard inoculum defined by CLSI was used to establish consistent growth in untreated control samples for some strains. In vitro time-kill assays were performed according to CLSI guidelines[65] using Columbia Broth (BD Difco) supplemented with 1% IsoVitaleX Enrichment (BD). Viable bacterial counts were generated by plating 10-fold serially diluted samples on GC agar plates containing 1% IsoVitaleX Enrichment (BD).
smiles,measurement,setting,value
CC[C@H]1OC(=O)[C@H](C)[C@@H](O[C@H]2C[C@@](C)(OC)[C@@H](O)[C@H](C)O2)[C@H](C)[C@@H](O[C@@H]2O[C@H](C)C[C@H](N(C)C)[C@H]2O)[C@](C)(O)C[C@@H](C)CN(C)[C@H](C)[C@@H](O)[C@]1(C)O [Azithromycin],percent of isolates resistant,"100 contemporary clinical N. gonorrhoeae isolates, EUCAST",2%
same,MIC,"WHO F, Etest, read-out: MIC",0.25 µg/mL
same,MIC,"WHO H, Etest, read-out: MIC",0.25 µg/mL
same,MIC,"WHO K, Etest, read-out: MIC",0.5 µg/mL
same,MIC,"WHO L, Etest, read-out: MIC",1 µg/mL
same,MIC,"WHO M, Etest, read-out: MIC",0.5 µg/mL
same,MIC,"WHO O, Etest, read-out: MIC",0.5 µg/mL
same,MIC,"WHO P, Etest, read-out: MIC",4 µg/mL
same,MIC,"WHO Q, Etest, read-out: MIC",< 256 µg/mL
same,MIC,"WHO R, Etest, read-out: MIC",0.5 µg/mL
same,MIC,"WHO S2, Etest, read-out: MIC",2 µg/mL
same,MIC,"WHO U, Etest, read-out: MIC",4 µg/mL
same,MIC,"WHO V, Etest, read-out: MIC",> 256 µg/mL
same,MIC,"WHO X, Etest, read-out: MIC",0.5 µg/mL
same,MIC,"WHO Y, Etest, read-out: MIC",1 µg/mL
same,MIC,"WHO Z, Etest, read-out: MIC",1 µg/mL
same,MIC,"comparator antibiotics, clinical N. gonorrhoeae isolate 1, Sweden 2023, read-out: Minimum inhibitory concentration",0.25 µg/mL
same,MIC,"comparator antibiotics, clinical N. gonorrhoeae isolate 2, Sweden 2023, read-out: Minimum inhibitory concentration",0.125 µg/mL
same,MIC,"comparator antibiotics, clinical N. gonorrhoeae isolate 3, Sweden 2023, read-out: Minimum inhibitory concentration",0.25 µg/mL
same,MIC,"comparator antibiotics, clinical N. gonorrhoeae isolate 4, Sweden 2023, read-out: Minimum inhibitory concentration",0.5 µg/mL
same,MIC,"comparator antibiotics, clinical N. gonorrhoeae isolate 5, Sweden 2023, read-out: Minimum inhibitory concentration",0.064 µg/mL
same,MIC,"comparator antibiotics, clinical N. gonorrhoeae isolate 6, Sweden 2023, read-out: Minimum inhibitory concentration",0.064 µg/mL
same,MIC,"comparator antibiotics, clinical N. gonorrhoeae isolate 7, Sweden 2023, read-out: Minimum inhibitory concentration",0.125 µg/mL
same,MIC,"comparator antibiotics, clinical N. gonorrhoeae isolate 8, Sweden 2023, read-out: Minimum inhibitory concentration",0.064 µg/mL
same,MIC,"comparator antibiotics, clinical N. gonorrhoeae isolate 9, Sweden 2023, read-out: Minimum inhibitory concentration",0.25 µg/mL
same,MIC,"comparator antibiotics, clinical N. gonorrhoeae isolate 10, Sweden 2023, read-out: Minimum inhibitory concentration",0.125 µg/mL
same,MIC,"comparator antibiotics, clinical N. gonorrhoeae isolate 11, Sweden 2023, read-out: Minimum inhibitory concentration",0.25 µg/mL
same,MIC,"comparator antibiotics, clinical N. gonorrhoeae isolate 12, Sweden 2023, read-out: Minimum inhibitory concentration",0.125 µg/mL
same,MIC,"comparator antibiotics, clinical N. gonorrhoeae isolate 13, Sweden 2023, read-out: Minimum inhibitory concentration",0.064 µg/mL
same,MIC,"comparator antibiotics, clinical N. gonorrhoeae isolate 14, Sweden 2023, read-out: Minimum inhibitory concentration",0.064 µg/mL
same,MIC,"comparator antibiotics, clinical N. gonorrhoeae isolate 15, Sweden 2023, read-out: Minimum inhibitory concentration",0.25 µg/mL
same,MIC,"comparator antibiotics, clinical N. gonorrhoeae isolate 16, Sweden 2023, read-out: Minimum inhibitory concentration",0.25 µg/mL
same,MIC,"comparator antibiotics, clinical N. gonorrhoeae isolate 17, Sweden 2023, read-out: Minimum inhibitory concentration",0.25 µg/mL
same,MIC,"comparator antibiotics, clinical N. gonorrhoeae isolate 18, Sweden 2023, read-out: Minimum inhibitory concentration",0.032 µg/mL
same,MIC,"comparator antibiotics, clinical N. gonorrhoeae isolate 19, Sweden 2023, read-out: Minimum inhibitory concentration",0.25 µg/mL
same,MIC,"comparator antibiotics, clinical N. gonorrhoeae isolate 20, Sweden 2023, read-out: Minimum inhibitory concentration",0.5 µg/mL
same,MIC,"comparator antibiotics, clinical N. gonorrhoeae isolate 21, Sweden 2023, read-out: Minimum inhibitory concentration",0.5 µg/mL
same,MIC,"comparator antibiotics, clinical N. gonorrhoeae isolate 22, Sweden 2023, read-out: Minimum inhibitory concentration",0.125 µg/mL
same,MIC,"comparator antibiotics, clinical N. gonorrhoeae isolate 23, Sweden 2023, read-out: Minimum inhibitory concentration",0.125 µg/mL
same,MIC,"comparator antibiotics, clinical N. gonorrhoeae isolate 24, Sweden 2023, read-out: Minimum inhibitory concentration",0.25 µg/mL
same,MIC,"comparator antibiotics, clinical N. gonorrhoeae isolate 25, Sweden 2023, read-out: Minimum inhibitory concentration",0.064 µg/mL
same,MIC,"comparator antibiotics, clinical N. gonorrhoeae isolate 26, Sweden 2023, read-out: Minimum inhibitory concentration",0.25 µg/mL
same,MIC,"comparator antibiotics, clinical N. gonorrhoeae isolate 27, Sweden 2023, read-out: Minimum inhibitory concentration",0.125 µg/mL
same,MIC,"comparator antibiotics, clinical N. gonorrhoeae isolate 28, Sweden 2023, read-out: Minimum inhibitory concentration",0.016 µg/mL
same,MIC,"comparator antibiotics, clinical N. gonorrhoeae isolate 29, Sweden 2023, read-out: Minimum inhibitory concentration",0.25 µg/mL
same,MIC,"comparator antibiotics, clinical N. gonorrhoeae isolate 30, Sweden 2023, read-out: Minimum inhibitory concentration",0.125 µg/mL
same,MIC,"comparator antibiotics, clinical N. gonorrhoeae isolate 31, Sweden 2023, read-out: Minimum inhibitory concentration",0.064 µg/mL
same,MIC,"comparator antibiotics, clinical N. gonorrhoeae isolate 32, Sweden 2023, read-out: Minimum inhibitory concentration",0.064 µg/mL
same,MIC,"comparator antibiotics, clinical N. gonorrhoeae isolate 33, Sweden 2023, read-out: Minimum inhibitory concentration",0.125 µg/mL
same,MIC,"comparator antibiotics, clinical N. gonorrhoeae isolate 34, Sweden 2023, read-out: Minimum inhibitory concentration",0.125 µg/mL
same,MIC,"comparator antibiotics, clinical N. gonorrhoeae isolate 35, Sweden 2023, read-out: Minimum inhibitory concentration",0.25 µg/mL
same,MIC,"comparator antibiotics, clinical N. gonorrhoeae isolate 36, Sweden 2023, read-out: Minimum inhibitory concentration",0.5 µg/mL
same,MIC,"comparator antibiotics, clinical N. gonorrhoeae isolate 37, Sweden 2023, read-out: Minimum inhibitory concentration",0.125 µg/mL
same,MIC,"comparator antibiotics, clinical N. gonorrhoeae isolate 38, Sweden 2023, read-out: Minimum inhibitory concentration",0.032 µg/mL
same,MIC,"comparator antibiotics, clinical N. gonorrhoeae isolate 39, Sweden 2023, read-out: Minimum inhibitory concentration",0.125 µg/mL
same,MIC,"comparator antibiotics, clinical N. gonorrhoeae isolate 40, Sweden 2023, read-out: Minimum inhibitory concentration",0.064 µg/mL
same,MIC,"comparator antibiotics, clinical N. gonorrhoeae isolate 41, Sweden 2023, read-out: Minimum inhibitory concentration",0.25 µg/mL
same,MIC,"comparator antibiotics, clinical N. gonorrhoeae isolate 42, Sweden 2023, read-out: Minimum inhibitory concentration",0.032 µg/mL
same,MIC,"comparator antibiotics, clinical N. gonorrhoeae isolate 43, Sweden 2023, read-out: Minimum inhibitory concentration",0.5 µg/mL
same,MIC,"comparator antibiotics, clinical N. gonorrhoeae isolate 44, Sweden 2023, read-out: Minimum inhibitory concentration",0.5 µg/mL
same,MIC,"comparator antibiotics, clinical N. gonorrhoeae isolate 45, Sweden 2023, read-out: Minimum inhibitory concentration",0.064 µg/mL
same,MIC,"comparator antibiotics, clinical N. gonorrhoeae isolate 46, Sweden 2023, read-out: Minimum inhibitory concentration",0.032 µg/mL
same,MIC,"comparator antibiotics, clinical N. gonorrhoeae isolate 47, Sweden 2023, read-out: Minimum inhibitory concentration",0.125 µg/mL
same,MIC,"comparator antibiotics, clinical N. gonorrhoeae isolate 48, Sweden 2023, read-out: Minimum inhibitory concentration",0.125 µg/mL
same,MIC,"comparator antibiotics, clinical N. gonorrhoeae isolate 49, Sweden 2023, read-out: Minimum inhibitory concentration",0.5 µg/mL
